Twelve compounds from patent US5925618A, “Peptides useful as somatostatin antagonists” (American Cyanamid Company, priority 1998, dated 1999) can be followed below.

pKi: −log10 of the molar value. Square brackets hold non-standard residues; d marks the D form. Peptide text beside a SMILES is read from it.

One test concerns the target T1, SSTR2 (Rattus norvegicus, UniProt P30680).
T1 construct: expressed in transfected cells
Kind of test: Competitive binding of 125I labeled S-14 to membranes of cells expressing SSTR2. The settings on record: 125I labeled S-14, membranes. As to the method: Membrane preparation. Tissue culture cell lines expressing transfected CDNA clones of SSTR2, and SSTR5 are used as a source of plasma membranes which specifically bind ^125 I labeled S-14 (Amersham, Arlington Heights, Ill.). Cells are removed from culture dishes by incubation at 4° C. for 5 minutes in PBS containing 1 mM EDTA, spun down (2,000 rpm, 5') and resuspended in 15 mL homogenization buffer (1 mM sodium bicarbonate pH 7.2, 1 mM EDTA, 1 mM EGTA and the following protease inhibitors: leupeptin and aprotenin at 5 μg/mL and benzamidine and bacitracin at 100 μg/mL). Cells are given 20 strokes with a Dounce homogenizer on ice and spun at 2000 rpm for 10 minutes. Membranes are isolated from the supernatant by centrifugation at 17,000 rpm for 30 minutes. The membrane pellet is washed once in 15 mL homogenization buffer and once in storage buffer (25 mM Tris pH 7.4 containing protease inhibitors). Each wash is followed by centrifugation at 17,000 rpm for 30 minutes. The membrane pellet is resuspended in storage buffer, measured for protein concentration (BioRad, Calif.) and stored at -80° C.
Binding assay. All reagents for the binding assay are prepared in binding buffer (50 mM Hepes pH 7.4, 2 mM EGTA, 5 mM MgCl2 and protease inhibitors). Membranes are thawed on ice and diluted to […] protein/50 μL binding buffer. ^125 I labeled S-14 (Amersham, Arlington Heights, Ill.) is diluted to 80-100,000 cpm/50 μL in binding buffer. Competitors, either test peptides or standards, are prepared at 4× final concentrations in binding buffer, as are wheat germ agglutinin (WGA)-linked PVC beads that contain solid scintillant (SPA beads, Amersham, Arlington Heights, Ill.). The binding assay is initiated by mixing 50 μL each of membranes, radiolabelled S-14, competitors and SPA beads in each well of a 96-well tray. The assay is incubated by shaking for 10-30 minutes at room temperature and then placing at 4° C. overnight. Bound radioligand is determined by counting in a Microbeta Liquid Scintillation counter (Wallac, Gaithersburg, Md.). Binding data is plotted and IC50 and Ki values are calculated for test compounds using Prism software (Graphpad Software Inc., San Diego, Calif.) and are shown in Table V. Binding is expressed as Ki, μM.

The target in test [1] is T2, S. cerevisiae (yeast) cells expressing SRIF receptors (Rattus norvegicus, UniProt P30680).
T2 construct: expressed in transfected cells; host or cells: S. cerevisiae strain LY364
Briefly: Yeast bioassay for SRIF antagonist activity (LY364 cells growing in response to SRIF, zone of growth inhibition). It is filed as cell-based. To be noted: Sample type 4th iteration; 10 μL of 5 mg/mL on disk, SRIF 10 nM, read after 3 days. The text has this: SRIF antagonist assay using S. cerevisiae (yeast) cells expressing SRIF receptors that grow in response to SRIF
Agar plates containing LY364 cells that are growing in the presence of added SRIF are the basis for a sensitive SRIF antagonist assay, whereby zones of growth inhibition result from the addition of SRIF antagonists to the surface of the agar plate (see L. A. Price, et al., Molecular and Cellular Biology, 15, 6188-6195, 1995, incorporated herein by reference).
In this assay, LY364 cells are grown overnight in 2 mL of synthetic complete(SC) medium (3.4 g/L YNB without amino acids and ammonium sulfate, 10 g/L ammonium sulfate and 1.4 g/L CSM-ura-trp) with glucose (2%) and without uracil and tryptophan. These cells are washed and cultured for 4 to 8 hours in 5 mL of SC medium with lactate (3%) and without uracil and tryptophan, and finally grown overnight in 5 mL of SC medium with galactose (2%) and without uracil and tryptophan. Molten (50° C.) SC agar medium with galactose (2%) and without uracil, tryptophan and histidine is adjusted to pH 6.8 with KOH, mixed with 2×10^4 cells/mL and SRIF (S-14, 10 nM) and poured into square (20×20 cm) petri dishes. Sterile filter disks are placed on the surface of the agar, and saturated with 10 μL of water or DMSO containing 5 mg/mL test peptides. After three days, the plates display a uniform cloudy background of LY264 cells growing in response to the added SRIF. […] This zone is quantified by measuring its diameter (mm), which varies according to the potency of the SRIF antagonist. Those peptides or mixtures of peptides displaying the largest zones of inhibition are further characterized.
Values are compared among samples in the same experiment, as the degree of yeast growth varies somewhat from assay to assay. For the first five sample types, in which progressively less complex mixtures of peptides are found, this assay is the primary determining factor in choosing which samples form the basis of subsequent syntheses.
Plates are read after 3 days. Samples shown in Table I in bold type are chosen for further synthesis. In Table I, all amino acids are D-amino acids and dashes represent undefined amino acid residues.

In a further test the test system is Male Sprague-Dawley rats. Kind of test: Serum growth hormone levels in anaesthetized rats given GRF with and without peptide 1. It is filed as in vivo, rat. As to the method: Evaluation in anaesthetized rats. Male Sprague-Dawley rats are anaesthetized with Sagatal and fitted so as to allow efficient intravenous treatment with control and test compounds as well as frequent blood sampling. Blood samples are tested for growth hormone (GH) levels by radioimmunoassay. Thirty minutes after the initiation of blood sampling, rats are given 5 μg, 25 μg or 50 μg of peptide 1.
Peptide 1 is tested in combination with growth hormone releasing factor (GRF), to investigate whether said peptide may be mimicking the action of GRF. Anaesthetized rats are given GRF (1 μg) alone and in combination with peptide 1 (50 μg).

T2 sequence (P30680 whole entry): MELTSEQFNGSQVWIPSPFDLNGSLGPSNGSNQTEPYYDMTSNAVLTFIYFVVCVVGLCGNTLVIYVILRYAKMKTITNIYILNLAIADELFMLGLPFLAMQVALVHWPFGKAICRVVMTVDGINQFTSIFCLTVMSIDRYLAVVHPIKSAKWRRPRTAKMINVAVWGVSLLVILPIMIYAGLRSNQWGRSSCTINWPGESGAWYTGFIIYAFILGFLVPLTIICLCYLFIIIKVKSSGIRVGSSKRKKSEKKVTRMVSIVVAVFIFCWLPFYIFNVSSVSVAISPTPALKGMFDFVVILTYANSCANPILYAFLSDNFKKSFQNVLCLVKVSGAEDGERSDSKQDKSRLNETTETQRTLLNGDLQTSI
T1 sequence (P30680 whole entry): as above

`CC[C@@H](C)[C@H]1NC(=O)[C@@H](Cc2ccccc2)NC(=O)[C@@H](Cc2c[nH]cn2)NC(=O)[C@@H](Cc2ccccc2)NC(=O)[C@@H](Cc2c[nH]c3ccccc23)NC(=O)[C@@H](CCCNC(=N)N)NC1=O` [#STR6##] (cyclo([dH][dF][dI][dR][dW][dF])) showed a pKi on SSTR2 of 6.85.
On to `CC[C@@H](C)[C@@H](NC(=O)[C@@H](Cc1ccccc1)NC(=O)[C@@H](Cc1c[nH]cn1)NC(C)=O)C(=O)N[C@H](CCCNC(=N)N)C(=O)N[C@H](Cc1c[nH]c2ccccc12)C(=O)N[C@H](CC(C)C)C(N)=O` [His Phe Ile Arg Trp Leu] (Ac-[dH][dF][dI][dR][dW][dL]-NH2), for which the “Inhibition Zone” value in test [1] was found to be 15 mm.
The same measure, in the same setting: the value for `CC[C@@H](C)[C@@H](NC(=O)[C@@H](Cc1ccccc1)NC(=O)[C@@H](Cc1c[nH]cn1)NC(C)=O)C(=O)N[C@H](CCCNC(=N)N)C(=O)N[C@H](Cc1c[nH]c2ccccc12)C(=O)N[C@H](CCSC)C(N)=O` [His Phe Ile Arg Trp Met] (Ac-[dH][dF][dI][dR][dW][dM]-NH2) was 18 mm; that for `CC[C@@H](C)[C@@H](NC(=O)[C@@H](Cc1ccccc1)NC(=O)[C@@H](Cc1c[nH]cn1)NC(C)=O)C(=O)N[C@H](CCCNC(=N)N)C(=O)N[C@H](Cc1c[nH]c2ccccc12)C(=O)N[C@@H](C(N)=O)[C@H](C)O` [His Phe Ile Arg Trp Thr] (Ac-[dH][dF][dI][dR][dW][dT]-NH2) was 14 mm.
`CC[C@@H](C)[C@@H](NC(=O)[C@@H](Cc1ccccc1)NC(=O)[C@@H](Cc1c[nH]cn1)NC(C)=O)C(=O)N[C@H](CCCNC(=N)N)C(=O)N[C@H](Cc1c[nH]c2ccccc12)C(=O)N[C@H](Cc1c[nH]c2ccccc12)C(N)=O` [His Phe Ile Arg Trp Trp] (Ac-[dH][dF][dI][dR][dW][dW]-NH2): the “Inhibition Zone” value in test [1] is recorded as 16 mm.
Same read-out and setting: the value for `CC[C@@H](C)[C@@H](NC(=O)[C@@H](Cc1ccccc1)NC(=O)[C@@H](Cc1c[nH]cn1)NC(C)=O)C(=O)N[C@H](CCCNC(=N)N)C(=O)N[C@H](Cc1c[nH]c2ccccc12)C(=O)N[C@H](Cc1ccc(O)cc1)C(N)=O` [His Phe Ile Arg Trp Tyr] (Ac-[dH][dF][dI][dR][dW][dY]-NH2) was 16 mm.
`CC[C@@H](C)[C@@H](NC(=O)[C@@H](Cc1c[nH]c2ccccc12)NC(=O)[C@@H](Cc1c[nH]cn1)NC(C)=O)C(=O)N[C@H](CCCNC(=N)N)C(=O)N[C@H](Cc1ccccc1)C(=O)N[C@H](Cc1ccccc1)C(N)=O` [Peptide 29, h-w-i-r-f-f] (Ac-[dH][dW][dI][dR][dF][dF]-NH2): the pKi at SSTR2 was 6.01.
Same read-out and setting: the figure for `CC[C@@H](C)[C@@H](NC(=O)[C@@H](CCCNC(=N)N)NC(=O)[C@@H](Cc1c[nH]c2ccccc12)NC(=O)[C@@H](Cc1ccccc1)NC(=O)[C@@H](Cc1c[nH]cn1)NC(C)=O)C(=O)N[C@H](Cc1ccccc1)C(N)=O` [Peptide 30, h-f-w-r-i-f] (Ac-[dH][dF][dW][dR][dI][dF]-NH2) is 5.55.
Same read-out and setting: the value for `CC[C@@H](C)[C@@H](NC(=O)[C@@H](CCCNC(=N)N)NC(=O)[C@@H](Cc1ccccc1)NC(=O)[C@@H](Cc1c[nH]cn1)NC(C)=O)C(=O)N[C@H](Cc1c[nH]c2ccccc12)C(=O)N[C@H](Cc1ccccc1)C(N)=O` [Peptide 31, h-f-r-i-w-f] (Ac-[dH][dF][dR][dI][dW][dF]-NH2) was 5.60; that for `CC[C@@H](C)[C@@H](NC(=O)[C@@H](Cc1ccccc1)NC(=O)[C@@H](Cc1c[nH]cn1)NC(=O)[C@@H](Cc1ccccc1)NC(=O)[C@@H](Cc1c[nH]c2ccccc12)NC(C)=O)C(=O)N[C@H](CCCNC(=N)N)C(N)=O` [Peptide 32, w-f-h-f-i-r] (Ac-[dW][dF][dH][dF][dI][dR]-NH2) was 4.43; that for `CC[C@@H](C)[C@@H](NC(C)=O)C(=O)N[C@H](CCCNC(=N)N)C(=O)N[C@H](Cc1c[nH]c2ccccc12)C(=O)N[C@H](Cc1ccccc1)C(=O)N[C@H](Cc1c[nH]cn1)C(=O)N[C@H](Cc1ccccc1)C(N)=O` [Peptide 33, i-r-w-f-h-f] (Ac-[dI][dR][dW][dF][dH][dF]-NH2) was 5.55.
Turning to growth hormone releasing factor [GRF], the SGH was determined as 67.1 ng/mL in the test on Male Sprague-Dawley rats (GRF 1 μg alone or with peptide 1 50 μg at 30 min, sample 35 min); 103.5 ng/mL in the test with Male Sprague-Dawley rats (GRF 1 μg alone or with peptide 1 50 μg at 30 min, sample 40 min); 53.1 ng/mL in the test on Male Sprague-Dawley rats (GRF 1 μg alone or with peptide 1 50 μg at 30 min, sample 45 min); 8.4 ng/mL with Male Sprague-Dawley rats (GRF 1 μg alone or with peptide 1 50 μg, 30 min (time of dosing)).

A word on the pKi: it is the Ki on a negative log10 scale, so that one unit is a factor of ten.
